We go through 22 compounds from PubChem BioAssay (NCI).

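Tested at 5 concentrations; 48 h exposure; 96-well plates; endpoints linearly interpolated, else capped at highest concentration. Definition used: TGI = concentration required for complete inhibition of growth.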 A value given as a limit tells only on which side of the number the result lay.

The subject of the first assay is MDA-N. Kind of assay: NCI tumour cell line growth inhibition, 48 h.
Take `CCCCCCc1cc2cc(-c3csc(CC#N)n3)c(=O)oc2cc1O`: the TGI is greater than 100 µM.

Consider `CN1CCN(C2=NCCO2)CC1`, for which the TGI was greater than 100 µM.

Regarding `COc1ccc(-c2cc(O)c3nc4ccccc4n3c2)cc1`, the TGI was greater than 100 µM.

In the case of `O=C1CSC(c2ccc(Cl)cc2)N1c1ccc(Oc2ccc(Cl)cc2)c(Cl)c1` (stereo not given), the TGI turned out to be 30.4 µM.

For the compound `Nn1c(-c2ccccc2)nn(C(=O)c2ccccc2)c1=O`, the TGI was greater than 100 µM.

Take `CN1CCc2cc(N)cc3c2C1Cc1ccc(O)c(O)c1-3` (stereo not given): the TGI was greater than 100 µM.

Consider `CC1(C)N=[N+]([O-])C1(C)C`, for which the TGI is greater than 100 µM.

For `COc1ccc2cc(NC(=O)N/N=C\c3ccc([N+](=O)[O-])cc3)ccc2c1`, the TGI is greater than 100 µM.

Regarding `COC(=O)c1c(C)cccc1C1CN=NC12Cc1ccc(C)cc1C2=O` (stereo not given), the TGI was greater than 100 µM.

Consider `COC(=O)C1SC(SC)=NC12c1ccccc1Nc1ccccc12` (stereo not given), for which the TGI was 70.6 µM.

As for `CCOC(=O)CSc1c(C(=O)OCC)c(=O)n(-c2ccccc2)c(=S)n1-c1ccccc1`, the TGI was greater than 100 µM.

The compound `COC(CCC[N+](C)(C)C)CC[N+](C)(C)C` (stereo not given) came in with a TGI greater than 100 µM.

Consider `Cc1ccccc1C(=O)N1CCc2c([nH]c3ccccc23)C1`, for which the TGI amounted to 43.9 µM.

Turning to `NC(=O)NCCCC(NC(=O)OCCCCn1ccc(=O)[nH]c1=O)C(=O)O` (stereo not given), the TGI is greater than 100 µM.

For `CCOC(=O)C(SCCO)C(C(=O)OCC)n1cnc2c(=O)[nH]c(NC(C)=O)nc21` (stereo not given), the TGI was greater than 100 µM.

`c1ccc(-c2nc(-c3ccccc3SSc3ccccc3-c3nc(-c4ccccc4)nn3-c3ccccc3)n(-c3ccccc3)n2)cc1` displayed a TGI greater than 100 µM.

The compound `Cc1ccc([N+](=O)[O-])cc1NC1=NCCO1` showed a TGI greater than 100 µM.

In the case of `CC(C)(C)N1CSC(=S)N(Cc2ccco2)C1`, the TGI was found to be 16.5 µM.

Turning to `O=c1c2cc([N+](=O)[O-])cnc2sn1-c1ccc([N+](=O)[O-])cc1`, the TGI was greater than 100 µM.

The compound `Cc1ccc(C(=O)O)cc1S(=O)(=O)Nn1cnc2ccc(S(=O)(=O)Nc3ccccc3C(=O)O)cc2c1=O` had a TGI greater than 100 µM.

`S=C1Nc2ccccc2SC1c1ccccc1` (stereo not given): the TGI is greater than 100 µM.

Consider `N#CC1(C#N)N[C@@H](c2ccsc2)[C@H]2C(=O)N(c3ccccc3)C(=O)[C@H]21`, for which the TGI is greater than 100 µM.

The next assay concerns NCI-H226 lung. Kind of assay: NCI tumour cell line growth inhibition, 48 h.
Turning to `CCCCCCc1cc2cc(-c3csc(CC#N)n3)c(=O)oc2cc1O`, the TGI is greater than 71.1 µM.

`CN1CCN(C2=NCCO2)CC1` came in with a TGI greater than 100 µM.

`COc1ccc(-c2cc(O)c3nc4ccccc4n3c2)cc1` returned a TGI greater than 100 µM.

For `O=C1CSC(c2ccc(Cl)cc2)N1c1ccc(Oc2ccc(Cl)cc2)c(Cl)c1` (stereo not given), the TGI is 36.5 µM.

`Nn1c(-c2ccccc2)nn(C(=O)c2ccccc2)c1=O`: the TGI is greater than 100 µM.

`CN1CCc2cc(N)cc3c2C1Cc1ccc(O)c(O)c1-3` (stereo not given): the TGI came out at 82.8 µM.

In turn, `CC1(C)N=[N+]([O-])C1(C)C` came in with a TGI greater than 100 µM.

Compound `COc1ccc2cc(NC(=O)N/N=C\c3ccc([N+](=O)[O-])cc3)ccc2c1` yielded a TGI greater than 100 µM.

`COC(=O)c1c(C)cccc1C1CN=NC12Cc1ccc(C)cc1C2=O` (stereo not given) gave a TGI greater than 100 µM.

Compound `COC(=O)C1SC(SC)=NC12c1ccccc1Nc1ccccc12` (stereo not given) returned a TGI greater than 100 µM.

Compound `CCOC(=O)CSc1c(C(=O)OCC)c(=O)n(-c2ccccc2)c(=S)n1-c1ccccc1` returned a TGI greater than 100 µM.

As to `COC(CCC[N+](C)(C)C)CC[N+](C)(C)C` (stereo not given), the TGI is greater than 100 µM.

In the case of `Cc1ccccc1C(=O)N1CCc2c([nH]c3ccccc23)C1`, the TGI was determined as 65 µM.

In the case of `NC(=O)NCCCC(NC(=O)OCCCCn1ccc(=O)[nH]c1=O)C(=O)O` (stereo not given), the TGI was greater than 100 µM.

The compound `CCOC(=O)C(SCCO)C(C(=O)OCC)n1cnc2c(=O)[nH]c(NC(C)=O)nc21` (stereo not given) returned a TGI greater than 100 µM.

For `c1ccc(-c2nc(-c3ccccc3SSc3ccccc3-c3nc(-c4ccccc4)nn3-c3ccccc3)n(-c3ccccc3)n2)cc1`, the TGI was greater than 100 µM.

Turning to `Cc1ccc([N+](=O)[O-])cc1NC1=NCCO1`, the TGI was greater than 100 µM.

As for `CC(C)(C)N1CSC(=S)N(Cc2ccco2)C1`, the TGI was 41.4 µM.

`O=c1c2cc([N+](=O)[O-])cnc2sn1-c1ccc([N+](=O)[O-])cc1` gave a TGI greater than 100 µM.

As for `Cc1ccc(C(=O)O)cc1S(=O)(=O)Nn1cnc2ccc(S(=O)(=O)Nc3ccccc3C(=O)O)cc2c1=O`, the TGI is greater than 100 µM.

Compound `S=C1Nc2ccccc2SC1c1ccccc1` (stereo not given) showed a TGI greater than 100 µM.

For `N#CC1(C#N)N[C@@H](c2ccsc2)[C@H]2C(=O)N(c3ccccc3)C(=O)[C@H]21`, the TGI is greater than 100 µM.

The subject of a further assay is IGROV1 ovarian. Kind of assay: NCI tumour cell line growth inhibition, 48 h.
As to `CCCCCCc1cc2cc(-c3csc(CC#N)n3)c(=O)oc2cc1O`, the TGI was greater than 100 µM.

For the compound `CN1CCN(C2=NCCO2)CC1`, the TGI was greater than 100 µM.

The compound `COc1ccc(-c2cc(O)c3nc4ccccc4n3c2)cc1` showed a TGI greater than 100 µM.

As for `O=C1CSC(c2ccc(Cl)cc2)N1c1ccc(Oc2ccc(Cl)cc2)c(Cl)c1` (stereo not given), the TGI was 31.2 µM.

In the case of `Nn1c(-c2ccccc2)nn(C(=O)c2ccccc2)c1=O`, the TGI was greater than 100 µM.

On to `CN1CCc2cc(N)cc3c2C1Cc1ccc(O)c(O)c1-3` (stereo not given), for which the TGI was greater than 100 µM.

`CC1(C)N=[N+]([O-])C1(C)C` came in with a TGI greater than 100 µM.

`COc1ccc2cc(NC(=O)N/N=C\c3ccc([N+](=O)[O-])cc3)ccc2c1` showed a TGI greater than 100 µM.

`COC(=O)c1c(C)cccc1C1CN=NC12Cc1ccc(C)cc1C2=O` (stereo not given) had a TGI greater than 100 µM.

`COC(=O)C1SC(SC)=NC12c1ccccc1Nc1ccccc12` (stereo not given) displayed a TGI greater than 100 µM.

As to `CCOC(=O)CSc1c(C(=O)OCC)c(=O)n(-c2ccccc2)c(=S)n1-c1ccccc1`, the TGI was greater than 100 µM.

Consider `COC(CCC[N+](C)(C)C)CC[N+](C)(C)C` (stereo not given), for which the TGI was greater than 100 µM.

`Cc1ccccc1C(=O)N1CCc2c([nH]c3ccccc23)C1`: the TGI is greater than 100 µM.

The compound `NC(=O)NCCCC(NC(=O)OCCCCn1ccc(=O)[nH]c1=O)C(=O)O` (stereo not given) returned a TGI greater than 100 µM.

Regarding `CCOC(=O)C(SCCO)C(C(=O)OCC)n1cnc2c(=O)[nH]c(NC(C)=O)nc21` (stereo not given), the TGI is greater than 100 µM.

Compound `c1ccc(-c2nc(-c3ccccc3SSc3ccccc3-c3nc(-c4ccccc4)nn3-c3ccccc3)n(-c3ccccc3)n2)cc1` gave a TGI greater than 100 µM.

Consider `Cc1ccc([N+](=O)[O-])cc1NC1=NCCO1`, for which the TGI was greater than 100 µM.

The compound `CC(C)(C)N1CSC(=S)N(Cc2ccco2)C1` showed a TGI of 12.6 µM.

`O=c1c2cc([N+](=O)[O-])cnc2sn1-c1ccc([N+](=O)[O-])cc1`: the TGI is greater than 100 µM.

`Cc1ccc(C(=O)O)cc1S(=O)(=O)Nn1cnc2ccc(S(=O)(=O)Nc3ccccc3C(=O)O)cc2c1=O`: the TGI is greater than 100 µM.

For `S=C1Nc2ccccc2SC1c1ccccc1` (stereo not given), the TGI was greater than 100 µM.

The compound `N#CC1(C#N)N[C@@H](c2ccsc2)[C@H]2C(=O)N(c3ccccc3)C(=O)[C@H]21` showed a TGI greater than 100 µM.

The next assay has as its system SNB-75 CNS. As to the kind of experiment: NCI tumour cell line growth inhibition, 48 h.
Regarding `CCCCCCc1cc2cc(-c3csc(CC#N)n3)c(=O)oc2cc1O`, the TGI was greater than 100 µM.

For the compound `CN1CCN(C2=NCCO2)CC1`, the TGI was greater than 100 µM.

As to `COc1ccc(-c2cc(O)c3nc4ccccc4n3c2)cc1`, the TGI was greater than 100 µM.

In the case of `O=C1CSC(c2ccc(Cl)cc2)N1c1ccc(Oc2ccc(Cl)cc2)c(Cl)c1` (stereo not given), the TGI came to 24.7 µM.
